# Tests used:
# Assay type in all cases: in vivo
# [1] = test system: Meloidogyne incognita J2s; assay: Serotonin-induced stylet thrusting assay, M. incognita J2s; details: 100 μM uNLP, 24 h, 5 mM serotonin
# Procedure: (§1) Predicted uNLPs from both M. incognita and G. pallida were synthesised by EZBiolab and dissolved into pH adjusted ddH2O to make a 5 mM stock which was aliquoted and stored at −20° C. J2s of both M. incognita and G. pallida were incubated for 24 hours in 200 μl of each peptide in a 24 well plate (SPL Lifesciences, South Korea) at a defined concentration.
# (§2) Stylet thrusting assays where performed by incubating 100 M. incognita or G. pallida J2s for 15 minute in 5 mM or 2 mM serotonin (Sigma Aldrich, USA), respectively. J2s were placed on a glass slide and stylet thrusts were counted for randomly selected J2s, for 1 minute each. Counting took place for a maximum of 15 minutes. Longer incubations yielded inconsistent results. At least 30 J2s were counted for each neuropeptide treatment.
# [2] = test system: Meloidogyne incognita J2s; assay: Tomato invasion assay, M. incognita J2s; details: 100 μM uNLP, 24 h, tomato seedlings, normalised to negative control
# Procedure: as §1
# (§3) Tomato seeds were sterilised with 2.5% NaOCl for 15 minutes, washed 5 times in ddH2O and germinated on 0.5% Murashige and Skoog plates at 23° C. […] Invasion assays were performed by mixing 500 pre-treated M. incognita or G. pallida J2s with agar slurry and a single tomato seedling (2 days post germination) in a 6 well plate. Assays were left at 23° C. for 24 hours in the case of M. incognita and at 18° C. for 24 hours in the case of G. pallida under a 16 hour light and 8 hour darkness cycle. Seedlings were stained using acid fuschin [69] and the number of nematodes within the roots counted.
# [3] = test system: Globodera pallida infective stage juveniles (J2s); assay: Chemosensory (chemotaxis) assay towards root exudate, G. pallida J2s; details: 100 μM uNLP, 24 h, mean+/-SEM
# Procedure: as §1
# (§4) A 60 mm Petri dish was divided into two segments, a positive and a negative side, with a 0.5 cm ‘dead zone’ either side of the centre point. The petri dish was filled with 15 ml of 0.25% w/v agar which was allowed to solidify. 3 ml of 0.25% w/v agar slurry in spring water (pH 7, agitated with a magnetic stirrer for several hours to give a smooth consistency) was added to the petri dish and spread evenly over the surface. Root diffusate (attractant) and water only (control) 0.25% agar plugs were embedded in the agar slurry, either side of the assay arena. Root diffusate was collected from 10 tomato plants, aged 3-6 weeks in 1 litre pots, by pouring 500 ml of ddH2O through the soil three times. Diffusate from each plant was combined, filter sterilised and stored at 4° C. for a maximum of 1 month. Root diffusate agar plugs were made by melting 1.25% agar in ddH2O, cooling to 50° C. before mixing with 4 parts of root diffusate. The agar was then allowed to solidify at room temperature. 100 uNLP pre-treated M. incognita or G. pallida J2s were added by pipette to the centre of the plate. J2s which moved out of the ‘dead zone’ after 3 hours were counted and their location (+/−) scored. The distribution of J2s were used to create a chemotaxis index for each plate, which formed one replicate, a total of 10 replicates where completed for each uNLP treatment.
# [4] = test system: Meloidogyne incognita infective stage juveniles (J2s); assay: Chemosensory (chemotaxis) assay towards root exudate, M. incognita J2s; details: M. incognita J2s, 100 μM uNLP, 24 h; mean+/-SEM
# Procedure: as §1, §4
# Globodera pallida J2s [5] = assay: Tomato invasion assay, G. pallida J2s; details: G. pallida J2s, 100 μM uNLP, 24 h; tomato seedlings
# Procedure: as §1, §3
# Globodera pallida J2s [6] = assay: Serotonin-induced stylet thrusting assay, G. pallida J2s; details: 100 μM uNLP, 24 h, 2 mM serotonin
# Procedure: as §1, §2
sequence,measurement,setting,value
"AAENFDENNDIN [Mi-NLP-18d, predicted unamidated NLP of Meloidogyne incognita]",rate of serotonergic-induced stylet thrusting compared with controls,[1],147.7%+/−16.05
same,host invasion compared to controls,[2],34.21%+/−12
"AFDLFTGPGFTGMD [Gp-NLP-15h, predicted unamidated NLP of Globodera pallida]",chemotaxis index (Cl) towards root exudate,[3],−0.06784+/−0.1415
"AFDRLDNSFMLL [Mi-NLP-8d, predicted unamidated NLP of Meloidogyne incognita]",host invasion compared to controls,[2],29.31%+/−12.57
"AFDRLDVSPFDFDAMT [Mi-NLP-8a, predicted unamidated NLP of Meloidogyne incognita]",rate of serotonergic-induced stylet thrusting compared with controls,[1],126.1%+/−9.278
same,chemotaxis index (Cl) towards root exudate,[4],0.018+/−0.3438
"AFDSFAGNGFTGFD [Mi-NLP-15f, predicted unamidated NLP of Meloidogyne incognita]",rate of serotonergic-induced stylet thrusting compared with controls,[1],75.18%+/−9.199
same,chemotaxis index (Cl) towards root exudate,[4],−0.05+/−0.3547
"AFDSFGTPGFTGFD [Mi-NLP-15a, predicted unamidated NLP of Meloidogyne incognita]",chemotaxis index (Cl) towards root exudate,[4],−0.01067+/−0.06497
"AFDSFTGPGFTGMD [Gp-NLP-15g, predicted unamidated NLP of Globodera pallida]",chemotaxis index (Cl) towards root exudate,[3],−0.2208 +/−0.1568
"AGARAFQRPDFDDASYEL [Mi-NLP-9a, predicted unamidated NLP of Meloidogyne incognita]",host invasion compared to controls,[2],45.59%+/−22.97
"AGGRLFRMVDLPDGDDFVPEG [Gp-NLP-21e, predicted unamidated NLP of Globodera pallida]",chemotaxis index (Cl) towards root exudate,[3],−0.3804+/−0.2762
"AGGRYFMRHFDDSPFAGWMA [Gp-NLP-21g, predicted unamidated NLP of Globodera pallida]",host invasion relative to controls,Globodera pallida J2s [5],214.8%+/−30.31
same,chemotaxis index (Cl) towards root exudate,[3],−0.01357+/−0.1854
"ALDILDGDDFTGFS [Gp-NLP-14e, predicted unamidated NLP of Globodera pallida]",chemotaxis index (Cl) towards root exudate,[3],−0.0641+/−0.2329
"ALDILESDDFGGF [Gp-NLP-14a, predicted unamidated NLP of Globodera pallida]",chemotaxis index (Cl) towards root exudate,[3],−0.3765+/−0.1039
"ALDLMEGDGFGGGFD [Mi-NLP-14b, predicted unamidated NLP of Meloidogyne incognita]",chemotaxis index (Cl) towards root exudate,[4],−0.1155+/−0.1472
"ALDMLEGDDFIGMQ [Mi-NLP-14a, predicted unamidated NLP of Meloidogyne incognita]",rate of serotonergic-induced stylet thrusting compared with controls,[1],61.6%+/−7.86
same,host invasion compared to controls,[2],44.61%+/−12.25
"ALDMMEGDDFIGL [Mi-NLP-14c, predicted unamidated NLP of Meloidogyne incognita]",rate of serotonergic-induced stylet thrusting compared with controls,[1],134.7%+/−19.51
same,host invasion compared to controls,[2],20.96%+/−11.12
"FAPRQFAFA [Mi-NLP-18a, predicted unamidated NLP of Meloidogyne incognita]",host invasion compared to controls,[2],25.88%+/−8.695
same,chemotaxis index (Cl) towards root exudate,[4],−0.1353+/−0.1129
"FNDDELSSLPFNFEYFPSLDTH [Mi-NLP-8b, predicted unamidated NLP of Meloidogyne incognita]",host invasion compared to controls,[2],61.38%+/−11.56
"GGARAFAKLEE [Mi-NLP-9c, predicted unamidated NLP of Meloidogyne incognita]",rate of serotonergic-induced stylet thrusting compared with controls,[1],143.2%+/−9.878
"GGARAFFGDADGPFNSASYWAP [Gp-NLP-21h, predicted unamidated NLP of Globodera pallida]",serotonergic-induced stylet thrusting relative to control groups,Globodera pallida J2s [6],116.8%+/−4.876
same,chemotaxis index (Cl) towards root exudate,[3],−0.01564+/−0.08072
"GGARAFNFFAPDE [Gp-NLP-21b, predicted unamidated NLP of Globodera pallida]",host invasion relative to controls,Globodera pallida J2s [5],6.897%+/−3.855
same,chemotaxis index (Cl) towards root exudate,[3],−0.117 +/−0.1936
"GGARAFNFFAPPDE [Gp-NLP-21a, predicted unamidated NLP of Globodera pallida]",host invasion relative to controls,Globodera pallida J2s [5],178.9%+/−48.52
"GGARAFNGAEETLLNVANLA [Gp-NLP-21i, predicted unamidated NLP of Globodera pallida]",serotonergic-induced stylet thrusting relative to control groups,Globodera pallida J2s [6],117.7%+/−4.497
same,chemotaxis index (Cl) towards root exudate,[3],−0.1733 +/−0.02667
"GGARPFYGFFGGGEGTW [Mi-NLP-9e, predicted unamidated NLP of Meloidogyne incognita]",host invasion compared to controls,[2],48.68%+/−10.87
"GGARPFYGGGYMDGTW [Gp-NLP-21f, predicted unamidated NLP of Globodera pallida]",chemotaxis index (Cl) towards root exudate,[3],0.1456+/−0.1232
"GGARTFLVGE [Mi-NLP-9b, predicted unamidated NLP of Meloidogyne incognita]",chemotaxis index (Cl) towards root exudate,[4],−0.07417+/−0.154
"GGTRAFNFFVSDALPSSYE [Gp-NLP-21c, predicted unamidated NLP of Globodera pallida]",host invasion relative to controls,Globodera pallida J2s [5],14.07%+/−4.655
"GMRNFAFA [Mi-NLP-18b, predicted unamidated NLP of Meloidogyne incognita]",rate of serotonergic-induced stylet thrusting compared with controls,[1],146.6%+/−7.609
same,host invasion compared to controls,[2],47.81%+/−6.008
"SAFDSFVGRGFTGMD [Mi-NLP-15e, predicted unamidated NLP of Meloidogyne incognita]",host invasion compared to controls,[2],38.71%+/−5.963
same,chemotaxis index (Cl) towards root exudate,[4],−0.01767+/−0.09428
"SFDSFTGSGFTGLD [Gp-NLP-15c, predicted unamidated NLP of Globodera pallida]",serotonergic-induced stylet thrusting relative to control groups,Globodera pallida J2s [6],56.07%+/−9.441
same,chemotaxis index (Cl) towards root exudate,[3],−0.227+/−0.0776
"SFDSFVGKGFTGMD [Mi-NLP-15c, predicted unamidated NLP of Meloidogyne incognita]",chemotaxis index (Cl) towards root exudate,[4],−0.359+/−0.277
"SFDSLTGPGFTGLDT [Gp-NLP-15a, predicted unamidated NLP of Globodera pallida]",chemotaxis index (Cl) towards root exudate,[3],−0.1451 +/−0.221
"SFGDYPFGSRTFAFA [Mi-NLP-18c, predicted unamidated NLP of Meloidogyne incognita]",rate of serotonergic-induced stylet thrusting compared with controls,[1],175.5%+/−20.72
"SGIQTFRDDYDEKQAGEL [Gp-NLP-21d, predicted unamidated NLP of Globodera pallida]",host invasion relative to controls,Globodera pallida J2s [5],2.01%+/−1.545
"SSLASGRIGFRPA [Mi-NLP-2, predicted unamidated NLP of Meloidogyne incognita]",rate of serotonergic-induced stylet thrusting compared with controls,[1],164.4%+/−20.3
"SSQFGGENSFARFAFA [Mi-NLP-18e, predicted unamidated NLP of Meloidogyne incognita]",host invasion compared to controls,[2],46.49%+/−7.391

# Source: patent US20200123208A1, “PEPTIDES AND NEMATICIDAL COMPOSITIONS” (priority 2017, published 2020)
